From article PMC5114727, “Biological characterization of chemically diverse compounds targeting the Plasmodium falciparum coenzyme A synthesis pathway” (Parasites & Vectors, 2016)
Values joined by “and” are separate entries in the source; they are usually repeats but may differ in a detail not shown here. Identical values can stand only once.

Assays:
[1] = tested on: T. b. brucei trypomastigote; assay: T. b. brucei resazurin (Alamar Blue) viability assay; format: cell-based, Trypanosoma brucei brucei; details: for IC50: highest concentration 40 μM, read-out: T. b. brucei trypomastigote IC50 ± SEM
Description: Compound activity against two members of another clinically important group of parasites, the kinetoplastids T. cruzi and T. b. brucei was determined. The sensitive high content imaging assay used to determine compound activity against T. cruzi assesses the intracellular amastigote life form of the parasite in the 3T3 host cell. […] The T. b. brucei assay employs the REDOX indicator Alamar Blue to assess viability, which was developed into a 384-well assay format.
Compound activity against T. b. brucei was assessed in a resazurin-based viability assay in concentration-response assays, without technical repeats, in two experimental replicates at a highest concentration of 40 μM, as previously described.

T. cruzi amastigotes = assay: T. cruzi amastigote image-based assay in 3T3 host cells; format: cell-based, Trypanosoma cruzi; details: 40 µM per footnote; given if an IC50 could not be calculated
Description: The next step taken was to determine whether the activity of the compounds was confined to P. falciparum, or whether it extended to other protozoan parasites. Compound activity against two members of another clinically important group of parasites, the kinetoplastids T. cruzi and T. b. brucei was determined. The sensitive high content imaging assay used to determine compound activity against T. cruzi assesses the intracellular amastigote life form of the parasite in the 3T3 host cell. It is important to simultaneously assess compound activity against 3T3 cells to determine potential cytotoxicity against the host cell line, since this could result in a false positive outcome. The T. b. brucei assay employs the REDOX indicator Alamar Blue to assess viability, which was developed into a 384-well assay format.
Compound activity against T. cruzi amastigotes was assessed in an image-based assay in single point concentration-response and three biological replicates, at a final highest compound concentration of […], as previously described.

T. cruzi trypomastigotes = assay: T. cruzi trypomastigote PrestoBlue assay; format: cell-based, Trypanosoma cruzi; details: for T. cruzi trypomastigote percent inhibition at the highest concentration tested: 40 µM, given if an IC50 could not be calculated
Description: Compound activity against T. cruzi trypomastigotes was assessed in two independent experiments, without technical repeats, at a final highest compound concentration of 40 μM in concentration-response PrestoBlue assay, as previously described.

3T3 cells = assay: 3T3 host cell cytotoxicity (part of T. cruzi amastigote image-based assay); design: species or system mouse; details: bound = highest concentration with < 50 % inhibition; read-out: 3T3 cytotoxicity IC50 ± SEM
Description: (§1) An initial indication of compound selectivity over human cells had previously been obtained through comparison of the compounds’ IC50 values against P. falciparum asexual stages and HEK293 [22]. In the present study, the selectivity investigation was extended to a small panel of human cancer cell lines, namely the estrogen receptor (ER)-positive breast cancer cell line MCF7, the ER-negative MDA-MB-231, as well as the human prostate cancer line, PC-3. Additionally, the cytotoxic effects on mouse embryonic fibroblast cell line 3T3, which serves as the host cell for T. cruzi in our image-based amastigote assay, were investigated.
(§2) Cytotoxicity of the compounds was assessed against a panel of human cancer cell lines, namely the estrogen receptor (ER)-positive breast cancer cell line MCF7, the ER-negative MDA-MB-231 and the prostate cancer line PC-3. All the cell lines were purchased from ATCC and maintained as previously described. Two biological replicates consisting of two technical replicates each were performed to generate concentration response curves (CRC) with a final highest concentration of 40 μM. A resazurin-based assay was utilized to determine cell viability as described earlier. Additionally, the cytotoxic effects on the mouse embryonic fibroblast cell line 3T3 were assessed as part of the Trypanosoma cruzi amastigote image-based assay as outlined in [35].

MCF7 cells = assay: Resazurin cytotoxicity assay, MCF7; format: cell-based, human
Description: as §1, §2

MDA-MB-231 cells = assay: Resazurin cytotoxicity assay, MDA-MB-231; format: cell-based, human
Description: as §1, §2

PC-3 cells = assay: Resazurin cytotoxicity assay, PC-3; format: cell-based, human
Description: as §1, §2

[2] = tested on: P. falciparum asexual blood stages (PfAS); assay: Chemical rescue with CoA pathway intermediates, asexual stages; format: cell-based, Plasmodium falciparum; details: for Percent rescue ± SEM by CoA, PfAS: CoA 0.8 mM; for Percent rescue ± SEM by CoA, PfAS / Percent rescue ± SEM by dephospho CoA, PfAS / Percent rescue ± SEM by pantethine, PfAS / Percent rescue ± SEM by pantothenate, PfAS: inhibitor at IC80; for Percent rescue ± SEM by dephospho CoA, PfAS: dP-CoA 0.8 mM; for Percent rescue ± SEM by pantethine, PfAS: pantethine 125 μM; for Percent rescue ± SEM by pantothenate, PfAS: pantothenate 300 μM
Description: (§3) Pantothenate is the first substrate of the pathway (Fig. 1) and its addition was intended to rescue the action of possible competitive inhibitors of the first enzyme, PanK. […] It is not known, whether P. falciparum is capable of pantetheine phosphorylation for utilization in CoA synthesis. […] Finally, the rescue ability of dP-CoA, the final substrate of CoA synthesis, was tested. […] Inhibitors competing with dP-CoA for DPCK binding were expected to be displaced, thereby rescuing parasite survival, by dP-CoA supplementation in a concentration dependent manner.
(§4) An imaging based assay was utilised to assess the chemical rescue on asexual stages of P. falciparum as described previously. All the pathway intermediates were purchased from Sigma. CoA and dP-CoA were dissolved in sterile distilled water to obtain a 20 mM stock solution, which was then aliquoted and stored at -20 °C until use. […] Each pathway intermediate was tested on the parasites at a range of concentrations to assess potential toxicity. […] On early stage P. falciparum gametocytes the same concentrations as for CoA were tested for dP-CoA; against asexual blood stage P. falciparum, late stage gametocytes and Trypanosoma b. brucei five dP-CoA concentrations were tested (2 mM, 1.5 mM, 1 mM, 0.75 mM and 0.5 mM).
(§5) The same concentration ranges of the CoA pathway intermediates were supplemented to parasites treated with the experimental compounds. The inhibitors were used at their respective final assay concentration of IC80 (as determined previously in the corresponding P. falciparum development stage or T. b. brucei assay). […] The negative control used in each assay was 0.4% DMSO, whilst the positive control was 2 μM artemisinin for asexual P. falciparum blood stages and 5 μM puromycin for all gametocyte stages and T. b. brucei. The percentage growth of the respective parasites following compound treatment was determined using Microsoft ® Excel 2010, and compared with their controls. All rescue assays were performed as two independent experiments each in duplicate point.

[3] = tested on: P. falciparum asexual blood stages / early gametocytes; assay: Chemical rescue of MMV000570 (Table S3B; PfAS and PfEG replicates, columns not assignable); format: cell-based, Plasmodium falciparum; details: stage and replicate not assignable
Description: as §4
as §5, with “compounds.” for “compounds. The inhibitors were used at their respective final assay concentration of IC80 (as determined previously in the corresponding P. falciparum development stage or T. b. brucei assay).”

HEK293 cells = details: as previously reported; read-out: HEK293 cytotoxicity IC50 ± SEM; cited from earlier work
[4] = molecular target: early stage gametocytes (stage I to IIb/III) of P. falciparum line NF54^Pfs16; assay: Gametocyte luciferase assay, early stage; format: cell-based, Plasmodium falciparum; details: highest concentration 40 μM; read-out: Early stage gametocyte IC50 ± SEM
Description: (§6) To investigate a potential role of CoA biosynthesis for host to vector transmission of the malaria parasite, we investigated the activity of our compounds on P. falciparum gametocytes, the sexual stages of P. falciparum, essential for malaria transmission. […] Parasite stage-specificity and gametocytocidal activity of the compounds was therefore investigated, utilizing a luciferase-based approach on early stage (development from stage I to IIb/III [30]) and late stage (IV to V [51]) gametocytes.
(§7) Induction of P. falciparum gametocyte differentiation and gametocyte culturing were performed as previously described. Compound activity against early stage gametocytes (covering the development from stage I to IIb/III) and late stage gametocytes (stage IV to V) of the recombinant P. falciparum line NF54^Pfs16 was assessed in concentration-response assays, in two experimental replicates consisting of two technical repeats each, at a highest concentration of 40 μM, as described earlier.

[5] = tested on: late stage gametocytes (stage IV to V) of P. falciparum line NF54^Pfs16; assay: Gametocyte luciferase assay, late stage; format: cell-based, Plasmodium falciparum
Description: as §6, §7

[6] = tested on: panel of human cancer cell lines (MCF7, MDA-MB-231, PC-3); assay: Cytotoxicity across the panel of cell lines; format: cell-based
Description: as §1, §2

[7] = tested on: P. falciparum early stage gametocytes (PfEG, stage I-III); assay: Chemical rescue with CoA pathway intermediates, early stage gametocytes; format: cell-based, Plasmodium falciparum; details: inhibitor at IC80
Description: as §3, §4
as §5, with “compounds.” for “compounds. The inhibitors were used at their respective final assay concentration of IC80 (as determined previously in the corresponding P. falciparum development stage or T. b. brucei assay).”

[8] = tested on: P. falciparum asexual blood stage; details: cited from earlier work; for IC50: as previously reported, read-out: Asexual P. falciparum IC50 ± SEM
[9] = tested on: early stage gametocytes (stage I to IIb/III) of P. falciparum line NF54^Pfs16; details: cited from earlier work
[10] = tested on: P. falciparum developmental stages; assay: Activity across all P. falciparum life-cycle stages tested (asexual, early and late gametocytes); format: cell-based, Plasmodium falciparum; details: early and late stage gametocytes
Description: as §7

[11] = 40 µM, given if an IC50 could not be calculated

Structure (SMILES): CCc1ccc(Nc2cc(C)c3ccc(O)cc3n2)cc1.Cl [MMV000570]
- IC50 [1]: 5.85 ± 1.11 µM
- T. cruzi amastigote percent inhibition at the highest concentration tested (T. cruzi amastigotes): 96%
- T. cruzi trypomastigote percent inhibition at the highest concentration tested (T. cruzi trypomastigotes): 100%
- IC50 (3T3 cells): > 40 µM
- MCF7 percent inhibition at the highest concentration tested (MCF7 cells; 40 µM): 96%
- MDA-MB-231 percent inhibition at the highest concentration tested (MDA-MB-231 cells; 40 µM): 90%
- PC-3 percent inhibition at the highest concentration tested (PC-3 cells; 40 µM): 98%
- Rescue of growth inhibitory effect by any of the intermediates (in words) ([2]; compound at 1 μM): could not effectively be rescued by any of the intermediates
- percent rescue averages ± SEM by CoA, tested at IC80 concentration [3]: 6.4% and 8.1% and -1.6% and 26.7%
- percent rescue averages ± SEM by pantothenate, tested at IC50 concentration [3]: 3.5% and -0.6% and 4.3% and 28.6%
- percent rescue averages ± SEM by pantothenate, tested at IC80 concentration [3]: 3.1% and 2.2% and 2.3% and 5.2%
- IC50 (HEK293 cells): ~40 µM

Structure (SMILES): COc1ccc2c(=O)cc(C(Cl)(Cl)Cl)oc2c1 [MMV665820]
- IC50 [1]: 2.5 µM
- T. cruzi amastigote percent inhibition at the highest concentration tested (T. cruzi amastigotes): 62%
- T. cruzi trypomastigote percent inhibition at the highest concentration tested (T. cruzi trypomastigotes): 100%
- IC50 [4]: 0.44 ± 0.03 µM
- Late stage gametocyte percent inhibition at the highest concentration tested [5, 11]: 69%
- inhibition plateau level of the concentration-response curve, MDA-MB-231 (MDA-MB-231 cells): 43%
- inhibition plateau level of the concentration-response curve, PC-3 (PC-3 cells): 80%
- IC50 ([6]; MCF7, MDA-MB-231, PC-3, read-out: IC50 range against the cancer cell lines): 0.27 to 0.43 µM
- Percent rescue ± SEM by CoA, PfAS [2]: 113.3 ± 12.3%
- Percent rescue ± SEM by dephospho CoA, PfAS [2]: 88.6 ± 18.3%
- Percent rescue ± SEM by pantethine, PfAS [2]: No
- Percent rescue ± SEM by pantothenate, PfAS [2]: No
- Percent rescue ± SEM by pantethine, PfEG ([7]; pantethine 10 mM): No
- Percent rescue ± SEM by pantothenate, PfEG ([7]; pantothenate 625 μM): No
- IC50 [8]: 0.58 ± 0.08 µM
- plateau of P. falciparum growth inhibition ([8]; asexual blood stage): 100%
- inhibition against early stage gametocytes in earlier dose-response ([9]; 1 μM): about 50%

Structure (SMILES): OC1CCCCC1C1(NC(=S)Nc2ccccc2)CCCCC1 (centres unmarked) [MMV665980]
- T. b. brucei trypomastigote percent inhibition at the highest concentration tested [1, 11]: 100%
- T. cruzi amastigote percent inhibition at the highest concentration tested (T. cruzi amastigotes): 70%
- IC50 (T. cruzi trypomastigotes; highest concentration 40 μM, read-out: T. cruzi trypomastigote IC50 ± SEM): 4.42 ± 0.89 µM
- IC50 [4]: 7.54 ± 0.39 µM
- IC50 ([5]; highest concentration 40 μM, read-out: Late stage gametocyte IC50 ± SEM): 4.15 ± 0.56 µM
- IC50 (3T3 cells): > 40 µM
- IC50 (MCF7 cells; highest concentration 40 μM, bound = highest concentration with < 50 % inhibition, read-out: MCF7 cytotoxicity IC50 ± SEM): > 40 µM
- IC50 (MDA-MB-231 cells; highest concentration 40 μM, bound = highest concentration with < 50 % inhibition, read-out: MDA-MB-231 cytotoxicity IC50 ± SEM): > 40 µM
- IC50 (PC-3 cells; highest concentration 40 μM, bound = highest concentration with < 50 % inhibition, read-out: PC-3 cytotoxicity IC50 ± SEM): > 20 µM
- cytotoxicity against any of the cell lines investigated (in words) ([6]; up to the highest tested concentration of 40 μM): no or only negligible cytotoxicity
- Percent rescue ± SEM by CoA, PfAS [2]: 54.4 ± 2.5%
- Percent rescue ± SEM by dephospho CoA, PfAS [2]: 46.0 ± 2.6%
- Percent rescue ± SEM by pantethine, PfAS [2]: No
- Percent rescue ± SEM by pantothenate, PfAS [2]: No
- activity against all P. falciparum development stages tested (in words) [10]: moderate, single digit micromolar activity
- IC50 [8]: 6.31 ± 1.06 µM
- gametocytocidal activity in earlier screen versus hit threshold (in words) ([9]; screening concentration 5 μM, threshold 50% activity): lower than the hit threshold
- IC50 (HEK293 cells): > 40 µM
